# What was measured:
# PIK3CA(C420R) = molecular target: T1, PIK3CA(C420R) (Homo sapiens, UniProt P42336, C420R); assay: KINOMEscan at 1 μM, PIK3CA(C420R); type: binding; conditions: 1000 nM, read-out: Percent Control
# T1 construct: purchased Eurofins DiscoverX KINOMEscan
# Excerpt: (§1) Supplement cells-12-00287-s001.zip/File S2. KinomeScan data for the CAMKK2 probe and negative control.xlsx, sheet "SGC-CAMKK2-1N" | column: Percent Control
# TRKA = molecular target: T2, TRKA (Homo sapiens, UniProt P04629); assay: KINOMEscan at 1 μM, TRKA; type: binding; conditions: 1000 nM, read-out: Percent Control
# T2 construct: purchased Eurofins DiscoverX KINOMEscan
# Excerpt: as §1
# EIF2AK1 = molecular target: T3, EIF2AK1 (Homo sapiens, UniProt Q9BQI3); assay: KINOMEscan at 1 μM, EIF2AK1; type: binding; conditions: 1000 nM, read-out: Percent Control
# T3 construct: purchased Eurofins DiscoverX KINOMEscan
# Excerpt: as §1
# GSK3B = molecular target: T4, GSK3B (Homo sapiens, UniProt P49841); assay: KINOMEscan at 1 μM, GSK3B; type: binding; conditions: 1000 nM, read-out: Percent Control
# T4 construct: purchased Eurofins DiscoverX KINOMEscan
# Excerpt: as §1
# TRPM6 = molecular target: T5, TRPM6 (Homo sapiens, UniProt Q9BX84); assay: KINOMEscan at 1 μM, TRPM6; type: binding; conditions: 1000 nM, read-out: Percent Control
# T5 construct: purchased Eurofins DiscoverX KINOMEscan
# Excerpt: as §1
# CDK11 = molecular target: T6, CDK11 (Homo sapiens, UniProt Q9BWU1); assay: KINOMEscan at 1 μM, CDK11; type: binding; conditions: 1000 nM, read-out: Percent Control
# T6 construct: purchased Eurofins DiscoverX KINOMEscan
# Excerpt: as §1
# [1] = molecular target: T7, ABL1(H396P)-nonphosphorylated (Homo sapiens, UniProt P00519, H396P); assay: KINOMEscan at 1 μM, ABL1(H396P)-nonphosphorylated; type: binding; conditions: 1000 nM, read-out: Percent Control
# T7 construct: purchased Eurofins DiscoverX KINOMEscan
# Excerpt: as §1
# PFTAIRE2 = molecular target: T8, PFTAIRE2 (Homo sapiens, UniProt Q96Q40); assay: KINOMEscan at 1 μM, PFTAIRE2; type: binding; conditions: 1000 nM, read-out: Percent Control
# T8 construct: purchased Eurofins DiscoverX KINOMEscan
# Excerpt: as §1
# ANKK1 = molecular target: T9, ANKK1 (Homo sapiens, UniProt Q8NFD2); assay: KINOMEscan at 1 μM, ANKK1; type: binding; conditions: 1000 nM, read-out: Percent Control
# T9 construct: purchased Eurofins DiscoverX KINOMEscan
# Excerpt: as §1
# TIE2 = molecular target: T10, TIE2 (Homo sapiens, UniProt Q02763); assay: KINOMEscan at 1 μM, TIE2; type: binding; conditions: 1000 nM, read-out: Percent Control
# T10 construct: purchased Eurofins DiscoverX KINOMEscan
# Excerpt: as §1
# CDK2 = molecular target: T11, CDK2 (Homo sapiens, UniProt P24941); assay: KINOMEscan at 1 μM, CDK2; type: binding; conditions: 1000 nM, read-out: Percent Control
# T11 construct: purchased Eurofins DiscoverX KINOMEscan
# Excerpt: as §1
# [2] = molecular target: T12, RSK4(Kin.Dom.1-N-terminal) (Homo sapiens, UniProt Q9UK32); assay: KINOMEscan at 1 μM, RSK4(Kin.Dom.1-N-terminal); type: binding; conditions: 1000 nM, read-out: Percent Control
# T12 construct: RSK4(Kin.Dom.1-N-terminal); purchased Eurofins DiscoverX KINOMEscan
# Excerpt: as §1
# MEK1 = molecular target: T13, MEK1 (Homo sapiens, UniProt Q02750); assay: KINOMEscan at 1 μM, MEK1; type: binding; conditions: 1000 nM, read-out: Percent Control
# T13 construct: purchased Eurofins DiscoverX KINOMEscan
# Excerpt: as §1
# NEK5 = molecular target: T14, NEK5 (Homo sapiens, UniProt Q6P3R8); assay: KINOMEscan at 1 μM, NEK5; type: binding; conditions: 1000 nM, read-out: Percent Control
# T14 construct: purchased Eurofins DiscoverX KINOMEscan
# Excerpt: as §1
# PRKD3 = molecular target: T15, PRKD3 (Homo sapiens, UniProt O94806); assay: KINOMEscan at 1 μM, PRKD3; type: binding; conditions: 1000 nM, read-out: Percent Control
# T15 construct: purchased Eurofins DiscoverX KINOMEscan
# Excerpt: as §1
# AKT1 = molecular target: T16, AKT1 (Homo sapiens, UniProt P31749); assay: KINOMEscan at 1 μM, AKT1; type: binding; conditions: 1000 nM, read-out: Percent Control
# T16 construct: purchased Eurofins DiscoverX KINOMEscan
# Excerpt: as §1
# DCAMKL3 = molecular target: T17, DCAMKL3 (Homo sapiens, UniProt Q9C098); assay: KINOMEscan at 1 μM, DCAMKL3; type: binding; conditions: 1000 nM, read-out: Percent Control
# T17 construct: purchased Eurofins DiscoverX KINOMEscan
# Excerpt: as §1
# DYRK2 = molecular target: T18, DYRK2 (Homo sapiens, UniProt Q92630); assay: KINOMEscan at 1 μM, DYRK2; type: binding; conditions: 1000 nM, read-out: Percent Control
# T18 construct: purchased Eurofins DiscoverX KINOMEscan
# Excerpt: as §1
# NEK6 = molecular target: T19, NEK6 (Homo sapiens, UniProt Q9HC98); assay: KINOMEscan binding assay at 1 μM, NEK6; conditions: Compound Concentration 1000 nM; read-out: Percent Control
# T19 construct: purchased Eurofins DiscoverX KINOMEscan
# Excerpt: as §1
# EGFR(G719C) = molecular target: T20, EGFR(G719C) (Homo sapiens, UniProt P00533, G719C); assay: KINOMEscan 1 μM, EGFR(G719C); type: binding; conditions: 1000 nM; Entrez EGFR; read-out: Percent Control
# T20 construct: purchased Eurofins DiscoverX KINOMEscan
# Excerpt: (§2) Supplement cells-12-00287-s001.zip/File S2. KinomeScan data for the CAMKK2 probe and negative control.xlsx, sheet "SGC-CAMKK2-1" | column: Percent Control
# [3] = molecular target: T21, EGFR(L747-S752del, P753S) (Homo sapiens, UniProt P00533, DEL747-752/P753S); assay: KINOMEscan 1 μM, EGFR(L747-S752del, P753S); type: binding; conditions: 1000 nM; Entrez EGFR; read-out: Percent Control
# T21 construct: purchased Eurofins DiscoverX KINOMEscan
# Excerpt: as §2
# TAOK1 = molecular target: T22, TAOK1 (Homo sapiens, UniProt Q7L7X3); assay: KINOMEscan 1 μM, TAOK1; type: binding; conditions: 1000 nM; Entrez TAOK1; read-out: Percent Control
# T22 construct: purchased Eurofins DiscoverX KINOMEscan
# Excerpt: as §2
# CSNK1G2 = molecular target: T23, CSNK1G2 (Homo sapiens, UniProt P78368); assay: KINOMEscan 1 μM, CSNK1G2; type: binding; conditions: 1000 nM; Entrez CSNK1G2; read-out: Percent Control
# T23 construct: purchased Eurofins DiscoverX KINOMEscan
# Excerpt: as §2
# FLT3(D835Y) = molecular target: T24, FLT3(D835Y) (Homo sapiens, UniProt P36888, D835Y); assay: KINOMEscan 1 μM, FLT3(D835Y); type: binding; conditions: 1000 nM; Entrez FLT3; read-out: Percent Control
# T24 construct: purchased Eurofins DiscoverX KINOMEscan
# Excerpt: as §2
# BMPR2 = molecular target: T25, BMPR2 (Homo sapiens, UniProt Q13873); assay: KINOMEscan 1 μM, BMPR2; type: binding; conditions: 1000 nM; Entrez BMPR2; read-out: Percent Control
# T25 construct: purchased Eurofins DiscoverX KINOMEscan
# Excerpt: as §2
# CDK5 = molecular target: T26, CDK5 (Homo sapiens, UniProt Q00535); assay: KINOMEscan 1 μM, CDK5; type: binding; conditions: 1000 nM; Entrez CDK5; read-out: Percent Control
# T26 construct: purchased Eurofins DiscoverX KINOMEscan
# Excerpt: as §2
# DYRK1B = molecular target: T27, DYRK1B (Homo sapiens, UniProt Q9Y463); assay: KINOMEscan 1 μM, DYRK1B; type: binding; conditions: 1000 nM; Entrez DYRK1B; read-out: Percent Control
# T27 construct: purchased Eurofins DiscoverX KINOMEscan
# Excerpt: as §2
# HPK1 = molecular target: T28, HPK1 (Homo sapiens, UniProt Q92918); assay: KINOMEscan 1 μM, HPK1; type: binding; conditions: 1000 nM; Entrez MAP4K1; read-out: Percent Control
# T28 construct: purchased Eurofins DiscoverX KINOMEscan
# Excerpt: as §2
# [4] = molecular target: T29, JAK3(JH1domain-catalytic) (Homo sapiens, UniProt P52333); assay: KINOMEscan 1 μM, JAK3(JH1domain-catalytic); type: binding; conditions: 1000 nM; Entrez JAK3; read-out: Percent Control
# T29 construct: JAK3(JH1domain-catalytic); purchased Eurofins DiscoverX KINOMEscan
# Excerpt: as §2
# MLK1 = molecular target: T30, MLK1 (Homo sapiens, UniProt P80192); assay: KINOMEscan 1 μM, MLK1; type: binding; conditions: 1000 nM; Entrez MAP3K9; read-out: Percent Control
# T30 construct: purchased Eurofins DiscoverX KINOMEscan
# Excerpt: as §2
# PIP5K2B = molecular target: T31, PIP5K2B (Homo sapiens, UniProt P78356); assay: DiscoverX KINOMEscan binding assay at 1 μM, PIP5K2B; conditions: PIP5K2B (PIP4K2B); Compound Concentration 1000 nM; read-out: Percent Control
# T31 construct: purchased Eurofins DiscoverX KINOMEscan
# Excerpt: as §2
# TRKB = molecular target: T32, TRKB (Homo sapiens, UniProt Q16620); assay: DiscoverX KINOMEscan binding assay at 1 μM, TRKB; conditions: TRKB (NTRK2); Compound Concentration 1000 nM; read-out: Percent Control
# T32 construct: purchased Eurofins DiscoverX KINOMEscan
# Excerpt: as §2
# VPS34 = molecular target: T33, VPS34 (Homo sapiens, UniProt Q8NEB9); assay: DiscoverX KINOMEscan binding assay at 1 μM, VPS34; conditions: VPS34 (PIK3C3); Compound Concentration 1000 nM; read-out: Percent Control
# T33 construct: purchased Eurofins DiscoverX KINOMEscan
# Excerpt: as §2
# T28 sequence (Q92918 whole entry): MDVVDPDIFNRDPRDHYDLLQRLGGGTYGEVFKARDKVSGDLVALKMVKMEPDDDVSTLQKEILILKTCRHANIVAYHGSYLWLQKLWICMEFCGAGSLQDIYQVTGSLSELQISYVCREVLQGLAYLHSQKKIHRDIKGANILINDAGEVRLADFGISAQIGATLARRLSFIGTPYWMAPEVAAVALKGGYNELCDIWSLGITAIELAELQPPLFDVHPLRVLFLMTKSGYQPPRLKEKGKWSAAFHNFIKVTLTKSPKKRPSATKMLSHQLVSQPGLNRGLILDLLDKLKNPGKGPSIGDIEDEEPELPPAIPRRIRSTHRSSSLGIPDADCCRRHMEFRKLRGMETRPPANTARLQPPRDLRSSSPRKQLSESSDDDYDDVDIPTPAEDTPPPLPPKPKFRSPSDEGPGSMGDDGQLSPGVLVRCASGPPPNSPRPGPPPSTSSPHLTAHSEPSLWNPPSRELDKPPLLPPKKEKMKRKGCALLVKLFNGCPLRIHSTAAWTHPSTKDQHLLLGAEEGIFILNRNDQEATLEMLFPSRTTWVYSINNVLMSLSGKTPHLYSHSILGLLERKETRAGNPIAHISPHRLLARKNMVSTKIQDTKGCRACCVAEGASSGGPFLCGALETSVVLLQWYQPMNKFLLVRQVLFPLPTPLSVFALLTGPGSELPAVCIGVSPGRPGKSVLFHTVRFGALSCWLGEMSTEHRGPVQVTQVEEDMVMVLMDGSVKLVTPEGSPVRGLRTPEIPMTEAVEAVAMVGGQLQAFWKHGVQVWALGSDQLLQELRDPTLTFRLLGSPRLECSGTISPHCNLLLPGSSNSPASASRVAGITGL
# T9 sequence (Q8NFD2 whole entry): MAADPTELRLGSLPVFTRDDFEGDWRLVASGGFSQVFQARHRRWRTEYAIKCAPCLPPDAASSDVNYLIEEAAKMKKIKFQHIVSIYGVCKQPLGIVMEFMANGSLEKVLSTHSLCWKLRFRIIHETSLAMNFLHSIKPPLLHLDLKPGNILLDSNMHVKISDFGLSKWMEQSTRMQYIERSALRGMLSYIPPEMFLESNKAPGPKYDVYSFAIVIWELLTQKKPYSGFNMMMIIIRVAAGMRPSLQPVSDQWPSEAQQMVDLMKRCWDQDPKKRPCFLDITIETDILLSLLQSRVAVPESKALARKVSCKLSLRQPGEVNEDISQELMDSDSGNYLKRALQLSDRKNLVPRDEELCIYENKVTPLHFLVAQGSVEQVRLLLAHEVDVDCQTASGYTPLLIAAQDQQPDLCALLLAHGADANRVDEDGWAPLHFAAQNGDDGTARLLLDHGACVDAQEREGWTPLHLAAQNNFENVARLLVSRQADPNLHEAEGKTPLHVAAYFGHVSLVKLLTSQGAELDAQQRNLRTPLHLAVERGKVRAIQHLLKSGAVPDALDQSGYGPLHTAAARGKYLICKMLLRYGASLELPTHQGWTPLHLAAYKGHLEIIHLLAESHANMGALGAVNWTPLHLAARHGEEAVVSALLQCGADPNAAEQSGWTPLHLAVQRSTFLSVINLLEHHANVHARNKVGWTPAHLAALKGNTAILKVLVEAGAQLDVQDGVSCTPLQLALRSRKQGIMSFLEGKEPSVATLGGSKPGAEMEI
# T23 sequence (P78368 whole entry): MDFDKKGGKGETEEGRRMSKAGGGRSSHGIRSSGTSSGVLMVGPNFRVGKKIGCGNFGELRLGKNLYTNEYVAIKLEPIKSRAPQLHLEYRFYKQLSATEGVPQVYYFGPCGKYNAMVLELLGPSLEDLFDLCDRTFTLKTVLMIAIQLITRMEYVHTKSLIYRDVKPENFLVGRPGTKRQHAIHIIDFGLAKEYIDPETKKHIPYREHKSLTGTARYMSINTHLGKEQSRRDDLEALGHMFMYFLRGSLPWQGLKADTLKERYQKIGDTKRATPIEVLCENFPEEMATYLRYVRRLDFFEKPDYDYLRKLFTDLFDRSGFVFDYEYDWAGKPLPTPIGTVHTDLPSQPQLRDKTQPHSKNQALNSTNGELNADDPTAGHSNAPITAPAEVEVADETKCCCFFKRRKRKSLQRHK
# T1 sequence (P42336 whole entry C420R): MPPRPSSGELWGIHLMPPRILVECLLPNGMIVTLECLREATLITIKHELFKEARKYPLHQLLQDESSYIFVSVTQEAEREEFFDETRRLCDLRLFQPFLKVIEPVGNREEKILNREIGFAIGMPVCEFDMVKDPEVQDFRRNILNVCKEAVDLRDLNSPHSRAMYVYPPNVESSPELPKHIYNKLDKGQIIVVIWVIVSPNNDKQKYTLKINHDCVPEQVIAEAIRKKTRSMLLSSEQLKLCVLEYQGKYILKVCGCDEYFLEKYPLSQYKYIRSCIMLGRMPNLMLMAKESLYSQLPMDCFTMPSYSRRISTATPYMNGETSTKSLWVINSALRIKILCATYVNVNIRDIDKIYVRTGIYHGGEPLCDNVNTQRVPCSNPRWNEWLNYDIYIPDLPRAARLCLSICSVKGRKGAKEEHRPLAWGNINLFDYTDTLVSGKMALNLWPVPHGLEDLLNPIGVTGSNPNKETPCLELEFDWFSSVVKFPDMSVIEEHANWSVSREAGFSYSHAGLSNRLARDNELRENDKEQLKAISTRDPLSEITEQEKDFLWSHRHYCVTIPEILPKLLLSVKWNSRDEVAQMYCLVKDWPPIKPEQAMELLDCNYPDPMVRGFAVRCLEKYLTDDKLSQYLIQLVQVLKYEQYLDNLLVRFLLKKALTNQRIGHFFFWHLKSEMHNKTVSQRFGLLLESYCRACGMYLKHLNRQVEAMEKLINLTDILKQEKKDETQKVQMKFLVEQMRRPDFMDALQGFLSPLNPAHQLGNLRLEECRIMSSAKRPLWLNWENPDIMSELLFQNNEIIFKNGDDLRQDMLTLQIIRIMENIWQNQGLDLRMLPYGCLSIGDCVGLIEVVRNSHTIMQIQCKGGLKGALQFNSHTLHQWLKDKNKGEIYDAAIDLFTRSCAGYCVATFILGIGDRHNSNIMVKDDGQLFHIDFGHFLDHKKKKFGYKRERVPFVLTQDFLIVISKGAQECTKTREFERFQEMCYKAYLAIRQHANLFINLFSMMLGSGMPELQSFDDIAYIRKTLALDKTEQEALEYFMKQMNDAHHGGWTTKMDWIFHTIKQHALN
# T13 sequence (Q02750 whole entry): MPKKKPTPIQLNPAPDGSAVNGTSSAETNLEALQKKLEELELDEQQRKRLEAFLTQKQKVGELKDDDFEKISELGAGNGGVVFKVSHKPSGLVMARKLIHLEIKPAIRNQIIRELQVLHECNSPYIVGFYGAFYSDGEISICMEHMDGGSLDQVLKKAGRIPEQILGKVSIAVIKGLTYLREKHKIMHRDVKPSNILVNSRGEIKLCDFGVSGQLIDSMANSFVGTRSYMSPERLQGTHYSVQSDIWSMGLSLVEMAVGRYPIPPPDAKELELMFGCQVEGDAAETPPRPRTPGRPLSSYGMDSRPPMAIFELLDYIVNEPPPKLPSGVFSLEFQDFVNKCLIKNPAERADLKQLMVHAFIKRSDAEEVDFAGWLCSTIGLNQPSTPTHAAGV
# T3 sequence (Q9BQI3 whole entry): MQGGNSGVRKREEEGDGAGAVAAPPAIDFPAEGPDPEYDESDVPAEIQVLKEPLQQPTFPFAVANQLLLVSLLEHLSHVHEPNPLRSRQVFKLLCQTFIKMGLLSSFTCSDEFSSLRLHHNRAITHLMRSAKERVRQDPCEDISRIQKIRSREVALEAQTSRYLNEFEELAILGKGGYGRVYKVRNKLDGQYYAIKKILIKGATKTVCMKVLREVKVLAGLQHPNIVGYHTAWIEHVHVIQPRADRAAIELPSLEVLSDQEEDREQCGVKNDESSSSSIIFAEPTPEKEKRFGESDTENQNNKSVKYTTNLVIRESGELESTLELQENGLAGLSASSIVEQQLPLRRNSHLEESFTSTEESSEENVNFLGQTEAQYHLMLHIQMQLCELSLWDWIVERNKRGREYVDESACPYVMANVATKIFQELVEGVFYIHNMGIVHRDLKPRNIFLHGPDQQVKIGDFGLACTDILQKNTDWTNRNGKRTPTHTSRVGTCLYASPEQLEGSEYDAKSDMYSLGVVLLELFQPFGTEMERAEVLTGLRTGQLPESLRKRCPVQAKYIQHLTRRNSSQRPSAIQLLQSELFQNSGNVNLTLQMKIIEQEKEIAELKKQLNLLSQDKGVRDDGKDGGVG
# T15 sequence (O94806 whole entry): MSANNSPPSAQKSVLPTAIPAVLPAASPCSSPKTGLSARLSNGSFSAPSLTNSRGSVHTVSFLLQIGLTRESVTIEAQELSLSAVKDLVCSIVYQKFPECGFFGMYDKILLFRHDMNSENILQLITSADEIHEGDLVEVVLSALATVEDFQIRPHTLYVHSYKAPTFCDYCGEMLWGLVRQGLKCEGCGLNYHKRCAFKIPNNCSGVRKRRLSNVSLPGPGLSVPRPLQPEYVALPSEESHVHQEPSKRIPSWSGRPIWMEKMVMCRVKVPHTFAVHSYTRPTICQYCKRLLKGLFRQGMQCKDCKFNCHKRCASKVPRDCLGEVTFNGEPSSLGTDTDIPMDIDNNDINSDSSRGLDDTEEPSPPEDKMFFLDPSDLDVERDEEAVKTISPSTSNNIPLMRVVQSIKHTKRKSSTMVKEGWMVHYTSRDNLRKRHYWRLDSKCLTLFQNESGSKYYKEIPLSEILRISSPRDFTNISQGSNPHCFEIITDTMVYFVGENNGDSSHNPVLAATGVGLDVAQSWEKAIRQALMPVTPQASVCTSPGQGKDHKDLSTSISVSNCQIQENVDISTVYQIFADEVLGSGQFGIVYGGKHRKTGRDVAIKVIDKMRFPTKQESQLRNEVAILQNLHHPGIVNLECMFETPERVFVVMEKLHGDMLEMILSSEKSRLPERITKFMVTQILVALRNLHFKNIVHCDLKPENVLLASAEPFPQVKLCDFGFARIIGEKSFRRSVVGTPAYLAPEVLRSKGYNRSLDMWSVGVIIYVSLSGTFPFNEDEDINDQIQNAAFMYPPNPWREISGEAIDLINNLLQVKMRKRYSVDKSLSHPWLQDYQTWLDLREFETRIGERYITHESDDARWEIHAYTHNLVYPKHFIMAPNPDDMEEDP
smiles,measurement,setting,value
O=C(O)c1ccc(-c2coc3ncc(-c4ccccc4)cc23)cc1Cl [SGC-CAMKK2-1N (UNC-YL-83)],remaining binding at 1 µM,PIK3CA(C420R),0%
same,remaining binding at 1 µM,TRKA,38%
same,remaining binding at 1 µM,EIF2AK1,42%
same,remaining binding at 1 µM,GSK3B,47%
same,remaining binding at 1 µM,TRPM6,53%
same,remaining binding at 1 µM,CDK11,56%
same,remaining binding at 1 µM,[1],64%
same,remaining binding at 1 µM,PFTAIRE2,76%
same,remaining binding at 1 µM,ANKK1,78%
same,remaining binding at 1 µM,TIE2,79%
same,remaining binding at 1 µM,CDK2,91%
same,remaining binding at 1 µM,[2],92%
same,remaining binding at 1 µM,MEK1,93%
same,remaining binding at 1 µM,NEK5,93%
same,remaining binding at 1 µM,PRKD3,93%
same,remaining binding at 1 µM,AKT1,100%
same,remaining binding at 1 µM,DCAMKL3,100%
same,remaining binding at 1 µM,DYRK2,100%
same,remaining binding at 1 µM,NEK6,100%
Cc1cccc(-c2cnc3occ(-c4ccc(C(=O)O)c(C5CCCC5)c4)c3c2)c1 [SGC-CAMKK2-1 (YL-36)],remaining binding at 1 µM,EGFR(G719C),55%
same,remaining binding at 1 µM,[3],59%
same,remaining binding at 1 µM,TAOK1,78%
same,remaining binding at 1 µM,CSNK1G2,88%
same,remaining binding at 1 µM,FLT3(D835Y),89%
same,remaining binding at 1 µM,BMPR2,100%
same,remaining binding at 1 µM,CDK5,100%
same,remaining binding at 1 µM,DYRK1B,100%
same,remaining binding at 1 µM,HPK1,100%
same,remaining binding at 1 µM,[4],100%
same,remaining binding at 1 µM,MLK1,100%
same,remaining binding at 1 µM,PIP5K2B,100%
same,remaining binding at 1 µM,TRKB,100%
same,remaining binding at 1 µM,VPS34,100%

# Reference: PMC9856672, “SGC-CAMKK2-1: A Chemical Probe for CAMKK2” (Cells, 2023)
